The values that follow are results of earlier work, collected in article PMC7894237 (Inflammation Research, 2021).

Where two headings read alike, the source gives them in different places.

Data set [1] relates to AAK1. The conditions noted are these: compared with ruxolitinib and fedratinib.
In data set [2] the test system is COVID-19 particle entry in human lung host cells. The conditions noted are these: via inhibiting AAK1 and binding to GAK.
The test system of data set [3] is severe cases of COVID-19. The conditions noted are these: compared with the control group.
The test system of data set [4] is patients with rheumatoid arthritis.
Data set [5] concerns AAK1.
Data set [6] concerns SARS-CoV1 replication in Vero cells.
Data set [7] has as its system patients with SARS infection. As to conditions: human, in vivo.
Data set [8] relates to SARS-CoV1 replication in Vero cells. This is another data set of the same source.
Data set [9] deals with patients with severe sepsis with hyper-inflammation. The conditions noted are these: phase 3 randomized clinical trial.
Data set [10] concerns patient with severe COVID-19. As to conditions: anakinra started day 10 after hospital admission.
Another data set deals with sHLH/MAS patients. As to conditions: five adult patients, IV infusions up to 2400 mg/day.
For data set [11], the system named is patients with COVID-19. As to conditions: nine patients.
Test in data set [12]: not given
The source holds these as a separate data set.

Another data set relates to COVID-19 patients. The conditions noted are these: single 300 mg dose subcutaneously, ten patients.
Data set [13] concerns patients with multicentric Castleman disease.
Test in data set [14]: not given
The source holds these as a separate data set.

The test system of data set [15] is patients with COVID-19 who developed ARDS.
The test system of data set [16] is severe cases of COVID-19.
Test in data set [17]: not given
This is another data set of the same source.

Data set [18] relates to patients with COVID-19.
In a further data set the test system is influenza. The conditions noted are these: pre-treatment, same dose of subtypes.
In the next data set the test system is malaria. The conditions noted are these: deficient mice.
Data set [19] relates to patients with COVID-19. As to conditions: patient, died 13 days after hospitalization.
[20] abbreviates: of those who experienced a worsening.

With `CCS(=O)(=O)N1CC(CC#N)(n2cc(-c3ncnc4[nH]ccc34)cn2)C1` [baricitinib], the “affinity to AAK1” value with AAK1 [1] is reported as “more affinity to AAK1”. Also, the “IL-6 and GM-CSF levels” value with IL-6 and GM-CSF levels is given as “can decrease”. Further, the COVID-19 particle entry entry in data set [2] is on record as “can reduce the COVID-19 particle entry”.

Take `N#CC[C@H](C1CCCC1)n1cc(-c2ncnc3[nH]ccc23)cn1` [ruxolitinib]: the clinical improvement result in the data set with severe cases of COVID-19 [3] is recorded as “faster clinical improvement”.

In the case of `C[C@@H]1CCN(C(=O)CC#N)C[C@@H]1N(C)c1ncnc2[nH]ccc12` [tofacitinib], in data set [4], the “CRP level and erythrocyte sedimentation rates” value was “decreased CRP level and erythrocyte sedimentation rates (ESR)”; the major side effects result was “increasing both low-density lipoprotein (LDL) and high-density lipoprotein (HDL) levels, and decreasing blood neutrophils”. Also, the “inhibition of AAK1” value in the data set on AAK1 [5] was “does not significantly inhibit”.

As for `C=C1CC[C@H](O)C/C1=C/C=C1\CCC[C@]2(C)[C@@H]([C@H](C)/C=C/[C@H](C)C(C)C)CC[C@@H]12` [vitamin D], the “expression of pro-inflammatory markers” value with IL-1α, IL-1β, and TNF-α is “suppressing the expression of pro-inflammatory markers”.

Regarding IFN-α, in [6], the “sensitivity of SARS-CoV1 to the interferon” value is reported as “only weakly sensitive”. Also, the therapeutic effect result in data set [7] is “inconclusive”. Also, the “effect on SARS-CoV1 replication” value in data set [8] is reported as “inhibited synergistically”.

For the molecule “anakinra: recombinant IL-1R antagonist; blocks the binding of both IL-1α and IL-1β to IL-1R”, in [9], the side effects result was “without markedly side effects” and the therapeutic effect result was “beneficial”. The side effects observed entry (chronic anakinra therapy) was “reaction at the site of injection and infection”. Also, the “organ toxicities or gastrointestinal disturbances” value (specific IL-1β-targeting agents) is listed as “no organ toxicities or gastrointestinal disturbances”. For the same molecule, in [10], the “day on which patient was discharged from the ICU” value was 18 days and the “day on which respiratory function improved” value is 13 days. Also, the therapeutic effect result with sHLH/MAS patients is “reduced cytokine storm and subsequent clinical improvement”. In the data set on patients with COVID-19 [11], the therapeutic effect result was “prevents mechanical ventilation and decreases serum inflammatory markers”; the toxicity result is given as “no toxicity”. Further, the half-life in data set [12] is 4 to 6 h. For the same molecule, in data set [12] (subcutaneous route), the bioavailability is on record as 95%. Further, the plasma concentrations result in data set [12] (subcutaneous route, different chronic inflammatory conditions) is “adequate and consistent plasma concentrations”.

For the molecule “canakinumab: high affinity, monoclonal anti-IL-1β antibody”, the tolerability result with COVID-19 patients is listed as “well tolerated, with no recorded injection site reactions, infection, or side-effects”.

For the molecule rilonacept, the major side effects entry in the data set on patients with CAPS was “reactions at injection-site, upper respiratory tract infections, sinusitis, cough, hypoesthesia, nausea, diarrhea, stomach discomfort, and urinary tract infections”. Moreover, the “serum CRP level” value with patients with CAPS (week six, pre-treatment baseline value = 22 mg/L) was 2 mg/L.

As for siltuximab: monoclonal antibody of IL-6, in [13] (3/60 patients), the “side effect: vomiting” value is on record as 5%. In [13] (4/60 patients), the “side effect: nausea” value is 7% and the “side effect: neutropenia” value is listed as 7%. For the same molecule, in [13] (5/60 patients), the “side effect: fatigue” value is 8%. For the same molecule, the “side effect: hypertension” value in [13] (8/60 patients) is listed as 13%. Moreover, the “side effect: infection” value in data set [13] (25/60 patients) was 42%. The deaths result in data set [13] (60 patients) is “no deaths”. In [14], the half-life is 391 ± 101 h. The maximum tolerated dose in the data set with Castleman’s disease (Castleman’s disease) was 100 mg twice weekly. Further, the “median decrease in hepcidin levels” value with Castleman’s disease (day 8 of siltuximab treatment) was 47%. In the data set on Castleman’s disease (every 3 weeks), the “dose at which maximum suppression of CRP level was observed” value is on record as 12 mg/kg. In [15] (21 patients, follow-up 8 days), the “patients with improvement in their condition with a reduced need for ventilation” value is listed as 33% and the “patients with worsening of their condition who required intubation” value is 24%. Also, the “patients with serum CRP levels reduced to within the normal range” value in data set [15] (21 patients, intravenous 700-1200 mg, follow-up 8 days) was 16 patients. Also, in data set [15] (setting [20]), the “patients who developed a cerebrovascular event” value is listed as “one” and the patients who died result is on record as “one”.

With “tocilizumab: recombinant humanized anti-interleukin-6 receptor monoclonal antibody”, in the data set on severe cases of COVID-19 [16] (10/19 patients), the “patients whose lymphocyte number returned to normal values” is 52.6%. Besides, the “patients whose abnormal elevated C-reactive protein returned to normal values” in the data set with severe cases of COVID-19 [16] (16/19 patients) is listed as 84.2%. Besides, in the data set on severe cases of COVID-19 [16] (5 days after administration, 15/ 20 patients), the “patients with lowered oxygen intake” value was 75%. Also, the side effects result in the data set on severe cases of COVID-19 [16] (all patients) is listed as “No obvious side effects”. Further, the major side-effects result in data set [17] was “general infections, hepatotoxicity, hypertriglyceridemia, as well as diverticulitis”. In addition, the “patients in whom the high level of CRP was suppressed rapidly” value in the data set with patients with COVID-19 [18] was 11/15. Besides, the “patients with decreased serum IL-6 levels” value in the data set on patients with COVID-19 [18] (after tocilizumab therapy) is recorded as “ten”. For the same molecule, the “need for mechanical ventilation” value with COVID-19 pneumonia (after tocilizumab therapy) was “did not require mechanical ventilation”. For the same molecule, the treatment outcome in the data set with COVID-19 pneumonia (single administration in combination with hydroxychloroquine) is “successfully treated”.

B1: IFN-α6: type I IFN subtype (protein, UniProt P05013 21-189, looked up)
Interferon alpha-6: SLDCDLPQTHSLGHRRTMMLLAQMRRISLFSCLKDRHDFRFPQEEFDGNQFQKAEAISVLHEVIQQTFNLFSTKDSSVAWDERLLDKLYTELYQQLNDLEACVMQEVWVGGTPLMNEDSILAVRKYFQRITLYLTEKKYSPCAWEVVRAEIMRSFSSSRNLQERLRRKE
For B1, in the data set with influenza, the “effect on viral load” value is “more suppressive effects on the viral load than IFN-α1”.

B2: interferon-gamma: Type II IFN (protein, UniProt P01579 24-161, looked up)
Interferon gamma: QDPYVKEAENLKKYFNAGHSDVADNGTLFLGILKNWKEESDRKIMQSQIVSFYFKLFKNFKDDQSIQKSVETIKEDMNVKFFNSNKKKRDDFEKLTNYSVTDLNVQRKAIHELIQVMAELSPAAKTGKRKRSQMLFRG
Turning to B2, the “sensitivity of SARS-CoV1 to the interferon” value in [6] is given as “only weakly sensitive”.

B3: IFN-α5: type I IFN subtype (protein, UniProt P01569 22-189, looked up)
Interferon alpha-5: LGCDLPQTHSLSNRRTLMIMAQMGRISPFSCLKDRHDFGFPQEEFDGNQFQKAQAISVLHEMIQQTFNLFSTKDSSATWDETLLDKFYTELYQQLNDLEACMMQEVGVEDTPLMNVDSILTVRKYFQRITLYLTEKKYSPCAWEVVRAEIMRSFSLSANLQERLRRKE
On to B3, for which, in the data set on influenza, the “effect on viral load” value is “more suppressive effects on the viral load than IFN-α1”.

B4: recombinant soluble IL-6R: recombinant soluble IL-6R, mimic the trans-signaling of IL-6 (protein, UniProt P08887 20-365, looked up)
extracellular domain: LAPRRCPAQEVARGVLTSLPGDSVTLTCPGVEPEDNATVHWVLRKPAAGSHPSRWAGMGRRLLLRSVQLHDSGNYSCYRAGRPAGTVHLLVDVPPEEPQLSCFRKSPLSNVVCEWGPRSTPSLTTKAVLLVRKFQNSPAEDFQEPCQYSQESQKFSCQLAVPEGDSSFYIVSMCVASSVGSKFSKTQTFQGCGILQPDPPANITVTAVARNPRWLSVTWQDPHSWNSSFYRLRFELRYRAERSKTFTTWMVKDLQHHCVIHDAWSGLRHVVQLRAQEEFGQGEWSEWSPEAMGTPWTESRSPPAENEVSTPMQALTTNKDDDNILFRDSANATSLPVQDSSSVPLP
modifications: extracellular domain
In the case of B4, the outcome of malaria in the data set on malaria was “restores the lethal outcome of malaria”.

B5: sarilumab: human monoclonal antibody directed against the alpha subunit of the IL-6R (antibody, chains of the INN, looked up, V domains shown)
VH: EVQLVESGGGLVQPGRSLRLSCAASRFTFDDYAMHWVRQAPGKGLEWVSGISWNSGRIGYADSVKGRFTISRDNAENSLFLQMNGLRAEDTALYYCAKGRDSFDIWGQGTMVTVSS
VL: DIQMTQSPSSVSASVGDRVTITCRASQGISSWLAWYQQKPGKAPKLLIYGASSLESGVPSRFSGSGSGTDFTLTISSLQPEDFASYYCQQANSFPYTFGQGTKLEIK
B5: in the data set on patients with COVID-19 [19], the “patients with no improvement in lung function who died” value is on record as “one”.
